The record followed here is patent publication US20060128737A1, “Androgen receptor agonists” (KAKEN PHARMACEUTICAL CO., LTD., priority 2003, published 2006).

What all share (format): in vivo, rat
Assay [1] has as its system orchiectomized (ORX) rats. The experiment in a line: Test Example 7: effect of oral administration on prostate, levator ani muscle and femoral bone mineral density in ORX rats. The note with it: for Femoral bone mineral density / Weight of levator ani muscle / Weight of prostate: 7 days a week. As for the experimental part: (§1) Testes were removed from 12-week-old male SD rats. Starting on the next day, the compound of Example 129 (30 mg/5 ml/kg) was orally administered once daily for four consecutive weeks on a 7-day-a-week basis. As a positive control, methyl testosterone (MT) (100 mg/5 ml/kg) was orally administered once daily on a continuous 7-day-a-week basis. The test compound was suspended in a 0.5% methyl cellulose solution used as a solvent and the suspension was used in the test. In an ORX control group, a 0.5% methyl cellulose solution (5 ml/kg) was administered. Rats which had been falsely operated on without orchiectomy were used as a sham control group. On the next day after final administration, the wet weights of the ventral prostate and levator ani muscle were measured and the right femoral bone mineral density was measured by DEXA (double energy X-ray absorption) to evaluate the in vivo efficacy of the compound of Example 129. The results are shown in Table 21 and in FIGS. 16 to 18.

Assay [2] deals with orchiectomized (ORX) rats. Kind of assay: Test Example 6: effect of oral administration on prostate, levator ani muscle and femoral bone mineral density in ORX rats. The note with it: for Femoral bone mineral density / Weight of levator ani muscle / Weight of prostate: 7 days a week. The procedure:
as §1, with “108” for “129”, “108.” for “129.”, “20” for “21”, “13” for “16”, “15.” for “18.”

In assay [3] the test system is orchiectomized (ORX) rats. The experiment in a line: Test Example 3: effect on prostate, levator ani muscle and femoral bone mineral density in ORX rats (subcutaneous). The note with it: for Femoral bone mineral density / Weight of levator ani muscle / Weight of prostate: 5 days a week, 4 weeks. The procedure:
(§2) Testes were removed from 12-week-old male SD rats. Starting on the next day, the compound of Example 12 or 65 (30 mg/kg) or DHT (0.1, 1, 10 mg/kg) was subcutaneously administered once daily for four consecutive weeks on a 5-day-a-week basis. The Example compounds and DHT were dissolved in dimethyl sulfoxide and diluted 10-fold with olive oil to prepare solutions with various concentrations for use in the test. In an ORX control group, dimethyl sulfoxide as diluted 10-fold with olive oil was used for the test. Rats which had been falsely operated on without orchiectomy were used as a sham control group. On the next day after final administration, the wet weights of the ventral prostate and levator ani muscle were measured and the right femoral bone mineral density was measured by DEXA (double energy X-ray absorption) to evaluate the in vivo efficacy of the compounds of Example 12 and 65.

Assay [4] concerns orchiectomized (ORX) rats. Kind of assay: Test Example 4: effect on prostate, levator ani muscle and femoral bone mineral density in ORX rats (subcutaneous). The procedure:
as §2, with “Example 113” for “Example 12”, “or 114” for “or 65”, “DHT (10” for “DHT (0.1, 1, 10”, “test. […]” for “test. Rats which had been falsely operated on without orchiectomy were used as a sham control group.”, “and 114.” for “and 65.”

Assay [5] deals with orchiectomized (ORX) rats. The experiment in a line: Test Example 2: effect on prostate, levator ani muscle and femoral bone mineral density in ORX rats (subcutaneous). The note with it: for Femoral bone mineral density / Weight of levator ani muscle / Weight of prostate: 5 days a week, 4 weeks. The procedure: as §2, with “1 (3, 10, 30” for “12 or 65 (30”, “compound” for “compounds”, “1.” for “12 and 65.”

Assay [6] relates to orchiectomized (ORX) rats. The experiment in a line: Test Example 5: effect of oral administration on prostate, levator ani muscle and femoral bone mineral density in ORX rats. As for the experimental part:
Testes were removed from 12-week-old male SD rats. Starting on the next day, the compound of Example 1 (100 mg/10 ml/kg) was orally administered once daily for four consecutive weeks on a 5-day-a-week basis. As a positive control, testosterone propionate (TP) (10 mg/kg) was subcutaneously administered once daily on a continuous 5-day-a-week basis. The test compound was suspended in a 0.5% methyl cellulose solution used as a solvent whereas TP was dissolved in dimethyl sulfoxide and diluted 10-fold with olive oil for use in the test. In an ORX control group, dimethyl sulfoxide as diluted 10-fold with olive oil was used for the test. Rats which had been falsely operated on without orchiectomy were used as a sham control group. On the next day after final administration, the wet weights of the ventral prostate and levator ani muscle were measured and the right femoral bone mineral density was measured by DEXA (double energy X-ray absorption) to evaluate the in vivo efficacy of the compound of Example 1. The results are shown in Table 19 and in FIGS. 10 to 12.

[7] abbreviates: 30 mg/kg orally once daily, 4 weeks.
Setting [8] is: 10 mg/kg sc once daily, 5 days a week, 4 weeks.
The mark [9] stands for this setting: 10 mg/kg sc once daily, 5 days a week.

For the compound `C[C@]12CCC(=O)C=C1CC[C@@H]1[C@@H]2CC[C@@]2(C)[C@H]1CC[C@]2(C)O` [MT, methyl testosterone, reference compound], in assay [1] (100 mg/kg orally), the “Prostate weight as % of the level of the sham control group” value (from here on “Prostate weight as %”) was “about 115%”. Moreover, in assay [1] (100 mg/kg orally once daily), the “Femoral bone mineral density” value was 149 ± 6 mg/cm^2, the “Weight of levator ani muscle” value is given as 63 ± 5 mg/100 g body weight and the Weight of prostate came to 143 ± 63 mg/100 g body weight. In addition, the “Prostate weight as %” value in assay [2] (100 mg/kg orally) is on record as “about 120%”. In addition, in assay [2] (100 mg/kg orally once daily), the “Femoral bone mineral density” value is listed as 146 ± 5 mg/cm^2, the “Weight of levator ani muscle” value is reported as 65 ± 8 mg/100 g body weight and the Weight of prostate worked out at 117 ± 18 mg/100 g body weight.

Consider `CC(C)(CNC(=O)c1ccc(OC(F)(F)F)cc1)[C@H]1Nc2ccc([N+](=O)[O-])cc2[C@H]2OCC[C@H]21` (relative stereo) [Example 65, (3aS*,4S*,9bS*)-N-[2-methyl-2-(8-nitro-2,3,3a,4,5,9b-hexahydro-furo[3,2-c]quinolin-4-yl)propyl]-4-trifluoromethoxybenzamide], for which the “Prostate weight as %” value in assay [3] (30 mg/kg sc) is reported as “about 70%”. In assay [3] (30 mg/kg sc once daily), the “Femoral bone mineral density” value is 120 ± 5 mg/cm^2, the “Weight of levator ani muscle” value is reported as 67 ± 6 mg/100 g body weight and the Weight of prostate is recorded as 69 ± 10 mg/100 g body weight.

Consider `CC(=O)Nc1ccc(C(=O)NCC(C)[C@H]2Nc3ccc(C#N)cc3[C@H]3OCC[C@H]32)cc1` (relative stereo) [Example 129, (3aS*,4R*,9bS*)-4-acetylamino-N-[2-(8-cyano-2,3,3a,4,5,9b-hexahydro-furo[3,2-c]quinolin-4-yl)propyl]benzamide], for which, in assay [1] (30 mg/kg orally), the “Prostate weight as %” value was “about 85%”. In assay [1] (setting [7]), the “Femoral bone mineral density” value is given as 145 ± 5 mg/cm^2, the “Weight of levator ani muscle” value is given as 66 ± 6 mg/100 g body weight and the Weight of prostate is recorded as 109 ± 66 mg/100 g body weight.

For `C[C@]12CCC(=O)C[C@@H]1CC[C@@H]1[C@@H]2CC[C@]2(C)[C@@H](O)CC[C@@H]12` [DHT, Dihydrotestosterone, reference compound], the “Femoral bone mineral density” value in assay [3] (0.1 mg/kg sc once daily) was determined as 114 ± 6 mg/cm^2; in assay [3] (1 mg/kg sc once daily), 115 ± 4 mg/cm^2; in assay [3] (10 mg/kg sc once daily), 122 ± 3 mg/cm^2; in assay [4] (setting [8]), 148 ± 5 mg/cm^2; in assay [5] (0.1 mg/kg sc once daily) it was 114 ± 6 mg/cm^2; in assay [5] (1 mg/kg sc once daily), 115 ± 4 mg/cm^2. Further, the “Femoral bone mineral density” value in assay [5] (10 mg/kg sc once daily) turned out to be 122 ± 3 mg/cm^2. For the same compound, the “Weight of levator ani muscle” value in assay [3] (0.1 mg/kg sc once daily) was 37 ± 6 mg/100 g body weight; in assay [3] (1 mg/kg sc once daily) it was 47 ± 3 mg/100 g body weight; in assay [3] (10 mg/kg sc once daily), 80 ± 5 mg/100 g body weight; in assay [4] (setting [8]), 89 ± 7 mg/100 g body weight; in assay [5] (0.1 mg/kg sc once daily), 39 ± 9 mg/100 g body weight; in assay [5] (1 mg/kg sc once daily), 58 ± 5 mg/100 g body weight. In assay [5] (10 mg/kg sc once daily), the “Weight of levator ani muscle” value is given as 78 ± 6 mg/100 g body weight. The Weight of prostate in assay [3] (0.1 mg/kg sc once daily) amounted to 34 ± 11 mg/100 g body weight; in assay [3] (1 mg/kg sc once daily), 81 ± 15 mg/100 g body weight; in assay [3] (10 mg/kg sc once daily), 146 ± 16 mg/100 g body weight; in assay [4] (setting [8]), 199 ± 27 mg/100 g body weight; in assay [5] (0.1 mg/kg sc once daily), 38 ± 7 mg/100 g body weight; in assay [5] (1 mg/kg sc once daily), 100 ± 9 mg/100 g body weight. Besides, in assay [5] (10 mg/kg sc once daily), the Weight of prostate was 166 ± 26 mg/100 g body weight. Moreover, the “Prostate weight as %” value in assay [3] (10 mg/kg sc) is on record as “about 145%”; in assay [4] (10 mg/kg sc), “about 140%”; in assay [5] (10 mg/kg sc), “about 160%”.

For `CC(=O)Nc1ccc(C(=O)NCC(C)(C)[C@H]2Nc3ccc(C#N)cc3[C@H]3C=CC[C@H]32)cn1` (relative stereo) [Example 108, (3aR*,4S*,9bS*)-6-acetylamino-N-[2-(8-cyano-3a,4,5,9b-tetrahydro-3H-cyclopenta[c]quinolin-4-yl)-2-methyl-propyl]nicotinamide], the “Prostate weight as %” value in assay [2] (30 mg/kg orally) is on record as “about 70%”. Besides, in assay [2] (setting [7]), the “Femoral bone mineral density” value amounted to 141 ± 6 mg/cm^2, the “Weight of levator ani muscle” value came out at 61 ± 6 mg/100 g body weight and the Weight of prostate was 67 ± 13 mg/100 g body weight.

As for `CCC(=O)O[C@H]1CC[C@H]2[C@@H]3CCC4=CC(=O)CC[C@]4(C)[C@H]3CC[C@]12C` [TP, testosterone propionate, reference compound], the “Prostate weight as %” value in assay [6] (10 mg/kg sc) is “about 125%”. Further, in assay [6] (setting [9]), the “Femoral bone mineral density” value came out at 135 ± 8 mg/cm^2, the “Weight of levator ani muscle” value turned out to be 88 ± 9 mg/100 g body weight and the Weight of prostate was 204 ± 29 mg/100 g body weight.
